One may read the MIC as the smallest concentration in the dilution series that meets the test's criterion for growth inhibition.

Values after ≈ are worked out from the molar mass of the structure shown. Read-outs that look alike come from different tables or passages of the source. A value given as a limit tells only on which side of the number the result lay.

Assay [1] concerns methicillin-sensitive Staphylococcus aureus. Description: MIC by broth micro-dilution (CLSI), methicillin-sensitive S. aureus. Type of assay: cell-based. To be noted: MSSA S. aureus ATCC29213. (Broth dilution looks for growth in wells or tubes with falling amounts of substance.)
Assay [2] relates to carbapenem sensitive Escherichia coli. In words: MIC by broth micro-dilution (CLSI), carbapenem sensitive E. coli. Type of assay: cell-based.
Assay [3] has as its system carbapenem sensitive Pseudomonas aeruginosa. Description: MIC by broth micro-dilution (CLSI), carbapenem sensitive P. aeruginosa. Type of assay: cell-based.
Assay [4] has as its system carbapenemase producing K. pneumoniae. In words: MIC by broth micro-dilution (CLSI), carbapenemase producing K. pneumoniae. Type of assay: cell-based, Klebsiella pneumoniae.
[5] abbreviates: Staphylococcus aureus, ATCC 29213 / MSSA, read-out: MIC.
[6] abbreviates: Escherichia coli, ATCC25922, ESBL −ve E. coli ATCC25922, read-out: MIC.
Setting [7] is: Pseudomonas aeruginosa, ATCC27853, Meropenem susceptible P. aeruginosa ATCC27853, read-out: MIC.
The mark [8] stands for this setting: Klebsiella pneumoniae, ATCCBAA1705, KPC-2 K. pneumoniae ATCC BAA-1705, read-out: MIC.
Setting [9] is: Meropenem susceptible P. aeruginosa ATCC27853.
Where [10] appears, read: KPC-2 K. pneumoniae ATCC BAA-1705.

For `C[C@@H](NC(=O)Cn1cnnn1)[C@H]1C(=O)N2C(C(=O)O)=C(S[C@@H]3CN[C@H](C(=O)N4CCC(F)(CN)CC4)C3)[C@H](C)[C@H]12` [Example 346, (4R,5S,6R)-6-((R) - 1-(2-(1H-tetrazol-1-yl)acetamido)ethyl)-3-((3S,5S)-5-(4-(aminomethyl)-4-fluoropiperidine-1-carbonyl)pyrrolidin-3-ylthio)-4-methyl-7-oxo-1-azabicyclo[3.2.0]hept-2-ene-2-carboxylic acid], the MIC in assay [1] (setting [5]) came to 16 µg/mL (≈ 27.6 µM); in assay [2] (setting [6]), 1 µg/mL (≈ 1.73 µM); in assay [3] (setting [7]), 16 µg/mL (≈ 27.6 µM); in assay [4] (setting [8]) it was 8 µg/mL (≈ 13.8 µM).

In the case of `C[C@@H](NC(=O)Cn1cnnn1)[C@H]1C(=O)N2C(C(=O)O)=C(S[C@@H]3CN[C@H](C(=O)N4CCN[C@@H](CN)C4)C3)[C@H](C)[C@H]12` [Example 485, (4R,5S,6R)-6-((R)-1-(2-(1H-tetrazol-1-yl)acetamido)ethyl)-3-((3S,5S)-5-((S)-3-(aminomethyl)piperazine-1-carbonyl)pyrrolidin-3-ylthio)-4-methyl-7-oxo-1-azabicyclo[3.2.0]hept-2-ene-2-carboxylic acid], the MIC in assay [1] (setting [5]) worked out at 8 µg/mL (≈ 14.2 µM); in assay [2] (setting [6]) it was 0.5 µg/mL (≈ 0.889 µM); in assay [3] (setting [7]), 4 µg/mL (≈ 7.11 µM); in assay [4] (setting [8]), 4 µg/mL (≈ 7.11 µM).

On to `C[C@@H](NC(=O)Cn1cnnn1)[C@H]1C(=O)N2C(C(=O)O)=C(S[C@@H]3CN[C@H](C(=O)N4CC[C@@H](N)[C@H](O)C4)C3)[C@H](C)[C@H]12` [Example 553, (4R,5S,6R)-6-((R)-1-(2-(1H-tetrazol-1-yl)acetamido)ethyl)-3-((3S,5S)-5-((3R,4R)-4-amino-3-hydroxypiperidine-1-carbonyl)pyrrolidin-3-ylthio)-4-methyl-7-oxo-1-azabicyclo[3.2.0]hept-2-ene-2-carboxylic acid], for which the MIC in assay [1] (setting [5]) was determined as 2 µg/mL (≈ 3.55 µM); in assay [2] (setting [6]) it was 0.25 µg/mL (≈ 0.444 µM); in assay [3] (setting [7]) it was 2 µg/mL (≈ 3.55 µM); in assay [4] (setting [8]), 1 µg/mL (≈ 1.77 µM).

Take `C[C@@H](NC(=O)C(F)F)[C@H]1C(=O)N2C(C(=O)O)=C(S[C@@H]3CN[C@H](CN)C3)[C@H](C)[C@H]12` [Example 244]: the MIC in assay [1] (setting [5]) was determined as 1 µg/mL (≈ 2.39 µM); in assay [2] (setting [6]), 1 µg/mL (≈ 2.39 µM); in assay [3] (setting [7]), 64 µg/mL (≈ 153 µM); in assay [4] (setting [8]), 4 µg/mL (≈ 9.56 µM).

Consider `C[C@@H](NC(=O)Cn1cnnn1)[C@H]1C(=O)N2C(C(=O)O)=C(S[C@@H]3CN[C@H](C(=O)N4CC5CCNC5C4)C3)[C@H](C)[C@H]12` (stereo partly drawn) [Example 505, (4R,5S,6R)-6-((R)-1-(2-(1H-tetrazol-1-yl)acetamido)ethyl)-4-methyl-3-((3S,5S)-5-(octahydropyrrolo[3,4-b]pyrrole-5-carbonyl)pyrrolidin-3-ylthio)-7-oxo-1-azabicyclo[3.2.0]hept-2-ene-2-carboxylic acid], for which the MIC in assay [1] (setting [5]) is 2 µg/mL (≈ 3.57 µM); in assay [2] (setting [6]), 0.25 µg/mL (≈ 0.447 µM); in assay [3] (setting [7]), 1 µg/mL (≈ 1.79 µM); in assay [4] (setting [8]), 1 µg/mL (≈ 1.79 µM).

With `C[C@@H](NC(=O)Cn1cnnn1)[C@H]1C(=O)N2C(C(=O)[O-])=C(S[C@@H]3CN[C@H](C(=O)N4CCC5C[N+](C)(C)CCC54)C3)[C@H](C)[C@H]12` (stereo partly drawn) [Example 598], the MIC in assay [1] (Staphylococcus aureus, ATCC29213|MSSA, read-out: MIC) was 8 µg/mL (≈ 13.3 µM); in assay [2] (setting [6]) it was 1 µg/mL (≈ 1.66 µM); in assay [3] (setting [9]), 16 µg/mL (≈ 26.6 µM); in assay [4] (setting [8]) it was 2 µg/mL (≈ 3.32 µM).

As to `C[C@@H](NC(=O)CNC(=N)N)[C@H]1C(=O)N2C(C(=O)O)=C(S[C@@H]3CN[C@H](C(=O)N(C)C)C3)[C@H](C)[C@H]12` [Example 241], the minimal inhibitory concentration (MIC) in assay [1] (setting [5]) was determined as 16 µg/mL (≈ 33.2 µM); in assay [2] (setting [6]), 2 µg/mL (≈ 4.15 µM); in assay [3] (setting [7]), 32 µg/mL (≈ 66.4 µM); in assay [4] (setting [8]), 2 µg/mL (≈ 4.15 µM).

Turning to `C[C@@H](NC(=O)Cn1nnnc1C1CC1)[C@H]1C(=O)N2C(C(=O)O)=C(S[C@@H]3CN[C@H](C(=O)N4CC[C@@H](N)C4)C3)[C@H](C)[C@H]12` [Example 372, (4R,5S,6R)-3-((3S,5S)-5-((R)-3-aminopyrrolidine-1-carbonyl)pyrrolidin-3-ylthio)-6-((R)-1-(2-(5-cyclopropyl-1H-tetrazol-1-yl)acetamido)ethyl)-4-methyl-7-oxo-1-azabicyclo[3.2.0]hept-2-ene-2-carboxylic acid], the MIC came out at 4 µg/mL (≈ 6.97 µM) in assay [1] (setting [5]), 0.5 µg/mL (≈ 0.872 µM) in assay [2] (setting [6]), 64 µg/mL (≈ 112 µM) in assay [3] (setting [7]) and 8 µg/mL (≈ 13.9 µM) in assay [4] (setting [8]).

Regarding `C[C@@H](NC(=O)CC(N)=O)[C@H]1C(=O)N2C(C(=O)O)=C(S[C@@H]3CN[C@H](C(=O)N4CC[C@@H](N)C4)C3)[C@H](C)[C@H]12` [Example 299, (4R,5S,6R)-6-((R) - 1-(3-amino-3-oxopropanamido)ethyl)-3-((3S,5S)-5-((R)-3-aminopyrrolidine-1-carbonyl)pyrrolidin-3-ylthio)-4-methyl-7-oxo-1-azabicyclo[3.2.0]hept-2-ene-2-carboxylic acid], the minimum inhibitory concentration (MIC) in assay [1] (setting [5]) worked out at 16 µg/mL (≈ 31.5 µM); in assay [2] (setting [6]) it was 4 µg/mL (≈ 7.86 µM); in assay [3] (setting [7]) it was 16 µg/mL (≈ 31.5 µM); in assay [4] (setting [8]), 8 µg/mL (≈ 15.7 µM).

On to `C[C@@H](NC(=O)Cn1cnnn1)[C@H]1C(=O)N2C(C(=O)O)=C(S[C@@H]3CN[C@H](C(=O)N4CC[C@H](NC(=N)N)C4)C3)[C@H](C)[C@H]12` [Example 582, (4R,5S,6R)-6-((R)-1-(2-(1H-tetrazol-1-yl)acetamido)-ethyl)-3-((3S,5S)-5-((S)-3-guanidino-pyrrolidine-1-carbonyl)pyrrolidin-3-ylthio)-4-methyl-7-oxo-1-azabicyclo[3.2.0]hept-ene-2-carboxylic acid], for which the MIC amounted to 2 µg/mL (≈ 3.47 µM) in assay [1] (setting [5]), 0.25 µg/mL (≈ 0.434 µM) in assay [2] (setting [6]), 0.5 µg/mL (≈ 0.869 µM) in assay [3] (setting [7]) and 2 µg/mL (≈ 3.47 µM) in assay [4] (setting [8]).

In the case of `C[C@@H](NC(=O)C(F)F)[C@H]1C(=O)N2C(C(=O)O)=C(SC[C@@H]3C[C@H](NS(N)(=O)=O)CN3)[C@H](C)[C@H]12` [Example 267], the MIC in assay [1] (setting [5]) was 0.5 µg/mL (≈ 1 µM); in assay [2] (setting [6]), 1 µg/mL (≈ 2.01 µM); in assay [3] (setting [7]), above 128 µg/mL; in assay [4] (setting [8]), 2 µg/mL (≈ 4.02 µM).

Regarding `C[C@@H](NC(=O)Cn1cnnn1)[C@H]1C(=O)N2C(C(=O)O)=C(S[C@@H]3CN[C@H](C(=O)N4C[C@@H]5NC(=N)N[C@@H]5C4)C3)[C@H](C)[C@H]12` [Example 580, (4R,5S,6R)-6-((R)-1-(2-(1H-tetrazol-1-yl)acetamido)ethyl)-3-((3S,5S)-5-((3aR,6aS)-2-iminooctahydropyrrolo[3,4-d]imidazole-5-carbonyl)pyrrolidin-3-ylthio)-methyl-7-oxo-1-azabicyclo[3.2.0]hept-2-ene-2-carboxylic acid], the minimal inhibitory concentration (MIC) in assay [1] (setting [5]) stood at 2 µg/mL (≈ 3.49 µM); in assay [2] (setting [6]), 0.25 µg/mL (≈ 0.436 µM); in assay [3] (setting [7]), 0.5 µg/mL (≈ 0.872 µM); in assay [4] (setting [8]), 1 µg/mL (≈ 1.74 µM).

Turning to `C[C@@H](NC(=O)Cn1cnnn1)[C@H]1C(=O)N2C(C(=O)O)=C(SC3COC4(CNC4)C3)[C@H](C)[C@H]12` (single isomer, unassigned) [Example 557], the MIC turned out to be 4 µg/mL (≈ 8.63 µM) in assay [1], 0.125 µg/mL (≈ 0.27 µM) in assay [2] (ESBL −ve E. coli ATCC25922), 16 µg/mL (≈ 34.5 µM) in assay [3] (setting [9]) and 4 µg/mL (≈ 8.63 µM) in assay [4] (setting [8]).

As to `C[C@@H](NC(=O)Cn1cnnn1)[C@H]1C(=O)N2C(C(=O)O)=C(S[C@@H]3CN[C@H](C(=O)N4CC(N)(CC#N)C4)C3)[C@H](C)[C@H]12` [Example 424, (4R,5S,6R)-6-((R)-1-(2-(1H-tetrazol-1-yl)acetamido)ethyl)-3-((3S,5S)-5-(3-amino-3-(cyanomethyl)azetidine-1-carbonyl)pyrrolidin-3-ylthio)-4-methyl-7-oxo-1-azabicyclo[3.2.0]hept-2-ene-2-carboxylic acid], the MIC is 16 µg/mL (≈ 28.6 µM) in assay [1] (setting [5]), 0.25 µg/mL (≈ 0.448 µM) in assay [2] (setting [6]), 16 µg/mL (≈ 28.6 µM) in assay [3] (setting [7]) and 2 µg/mL (≈ 3.58 µM) in assay [4] (setting [8]).

Turning to `CNCC(=O)N[C@H](C)[C@H]1C(=O)N2C(C(=O)O)=C(S[C@@H]3CN[C@H](C(=O)NC4CCOCC4)C3)[C@H](C)[C@H]12` [Example 279], the MIC in assay [1] (setting [5]) was above 128 µg/mL; in assay [2] (setting [6]), 4 µg/mL (≈ 7.85 µM); in assay [3] (setting [7]) it was above 128 µg/mL; in assay [4] (setting [8]), 16 µg/mL (≈ 31.4 µM).

`C[C@@H](NS(C)(=O)=O)[C@H]1C(=O)N2C(C(=O)O)=C(S[C@@H]3CN[C@H](C(=O)N(C)C)C3)[C@H](C)[C@H]12` [Example 1, (4R,5S,6S)-3-((3S,5S)-5-(Dimethylcarbamoyl)pyrrolidin-3-ylthio)-4-methyl-6-((R)-1-(methylsulfonamido)ethyl)-7-oxo-1-azabicyclo[3.2.0]hept-2-ene-2-carboxylic acid]: the MIC in assay [1] (setting [5]) was 8 to 16 µg/mL (≈ 17.4 to 34.7 µM); in assay [2] (setting [6]), 0.25 to 1 µg/mL (≈ 0.543 to 2.17 µM); in assay [3] (setting [7]), 32 to 64 µg/mL (≈ 69.5 to 139 µM).

Turning to `C[C@@H](NC(=O)Cn1cnnn1)[C@H]1C(=O)N2C(C(=O)O)=C(S[C@@H]3CN[C@H](C(=O)N4CCOC(CN)C4)C3)[C@H](C)[C@H]12` (stereo in doubt) [Example 461, (4R,5S,6R)-6-((R)-1-(2-(1H-tetrazol-1-yl)acetamido)ethyl)-3-((3S,5S)-5-((S)-2-(aminomethyl)morpholine-4-carbonyl)pyrrolidin-3-ylthio)-4-methyl-7-oxo-1-azabicyclo[3.2.0]hept-2-ene-2-carboxylic acid], the MIC in assay [1] stood at 4 µg/mL (≈ 7.1 µM); in assay [2] (ESBL −ve E. coli ATCC25922), 0.5 µg/mL (≈ 0.887 µM); in assay [4] (setting [10]), 2 µg/mL (≈ 3.55 µM).

In the case of `C[C@@H](NC(=O)Cn1cnnn1)[C@H]1C(=O)N2C(C(=O)O)=C(S[C@@H]3CN[C@H](C(=O)N4CC5CC(CO)NC5C4)C3)[C@H](C)[C@H]12` (single isomer, unassigned) [Example 552], the MIC came out at 4 µg/mL (≈ 6.78 µM) in assay [1], 0.25 µg/mL (≈ 0.424 µM) in assay [2] (ESBL −ve E. coli ATCC25922) and 2 µg/mL (≈ 3.39 µM) in assay [4] (setting [10]).

These data come from patent US11180504B2 (ORCHID PHARMA LTD., priority 2016, dated 2021).
